Data from patent US20220389013A1, “PYRIDOPYRIMIDINONE COMPOUNDS AND APPLICATIONS THEREOF” (BeBetter Med Inc., priority 2020, published 2022).
pIC50: −log10 of the molar value.

Key:
H358 (KRAS G12C) = assay: Tumor cell proliferation inhibition assay (CellTiter-Glo), H358; assay type: cell-based, Human; settings: 10% fetal bovine serum
Description: (§1) The H358, H23 or MIA-Paca2 cells were digested, centrifuged and resuspended, and the cell density was measured with a Scepter automatic cell counter. Cells were diluted to a solution containing 44,000 cells per milliliter, then added to a 96-well culture plate at 90 μL per well. The 96-well plate was placed in a 5% CO2 incubator at 37° C., and after the cells were cultured for 24 hours, different concentrations of the compounds to be tested were added. Cells were incubated with compounds in the presence of 10% fetal bovine serum for 72 hours. The inhibition of cell growth was assessed by measuring ATP levels by using the CellTiter-Glo Luminescent Cell Viability Assay Kit (details in manufacturer's instructions). In brief, 30 μL of CellTiter-Glo reagent was added to each well and the plate was shaken for 10 minutes to induce cell lysis, then the fluorescent signal was detected and recorded with a Fluoroskan Ascent FL (Thermo). Maximum signal values were obtained from cells treated with DMSO for 72 hours. Minimum signal values were obtained with medium only (zero cell number). Inhibition rate %=(maximum signal value-compound signal value)/(maximum signal value-minimum signal value)×100%. Data were processed by using Graphpad prism5 software. IC50 values were calculated using a sigmoidal dose-response curve.

MIA-Paca2 (KRAS G12C) = assay: Tumor cell proliferation inhibition assay (CellTiter-Glo), MIA-Paca2; assay type: cell-based, Human; settings: 10% fetal bovine serum
Description: as §1

[1] = Pharmacokinetic (PK) experiment in rats by gavage; assay type: in vivo; settings: rat, plasma, po, male SD rats, 20 mg/kg; for AUC(0-t): read-out: AUC0-24
Description: Male SD rats, weighing 180-250 g, were fasted overnight before the test and stomach administrated with the test compound at 20 mg/kg. 15 minutes, 30 minutes, and 1, 2, 4, 6, 8, and 24 hours after administration, blood was taken from the end of the tail of the fracture, about 0.3 mL per time point, then placed in a centrifuge tube containing K2-EDTA, and centrifuged (2000 g, 10 min, at 4° C.). Plasma was collected and stored in an ultra-low temperature freezer at −80° C. 50 μL of plasma samples were vortexed with 135 μL of acetonitrile (containing 1 μg/mL internal standard) for protein precipitation and centrifuged, and the supernatant was collected for LC-MS/MS analysis.
After the rats oral administrated with the Pyridopyrimidinone compounds provided by the present disclosure, the absorption is good, and the blood exposure is relatively high. […] Cmax refers to the maximum plasma concentration, T1/2 is the half-life, AUC0-24 refers to the area under the 0-24 hour time-concentration curve, and AUC0-inf refers to the area under the 0-Inf time-concentration curve.

| SMILES | pIC50 (H358 (KRAS G12C); Homo sapiens, NCI-H358, 72 h) | pIC50 (MIA-Paca2 (KRAS G12C); Homo sapiens, MIA PaCa-2, 72 h) | further results |
| --- | --- | --- | --- |
| C=CC(=O)N1CCN(c2nc(=O)n(-c3c(C)ccnc3C(C)C)c3nc(-c4c(OC)ccc5ccoc45)c(F)cc23)[C@@H](C)C1 [Compound 109, 4-((S)-4-acryloyl-2-methylpiperazin-1-yl)-6-fluoro-1-(2-isopropyl-4-methylpyridin-3-yl)-7-(6-methoxybenzofuran-7-yl)pyrido[2,3-d]pyrimidin-2(1H)-one] | 7.00 to 7.30 | 6.30 to 7.00 | melting point: 156 to 158 °C |
| C=CC(=O)N1C[C@H](C)N(c2nc(=O)n(-c3c(C)ccnc3C(C)C)c3nc(-c4c(F)ccc5ccoc45)c(F)cc23)C[C@H]1C (atropisomer, axis not shown; (P)) [Compound 89-2, 4-((2S,5R)-4-acryloyl-2,5-dimethylpiperazin-1-yl)-6-fluoro-7-(6-fluorobenzofuran-7-yl)-1(P)-(2-isopropyl-4-methylpyridin-3-yl)pyrido[2,3-d]pyrimidin-2(1H)-one] | – | – | pIC50 (H358 (KRAS G12C); 72 hours): 7.96; pIC50 (MIA-Paca2 (KRAS G12C); 72 hours): < 6.30 |
| C=CC(=O)N1CCN(c2nc(=O)n(-c3c(C)ccnc3C(C)C)c3nc(-c4cccc5cc[nH]c45)c(F)cc23)[C@@H](C)C1 [Compound 82, (S)-4-(4-acryloyl-2-methylpiperazin-1-yl)-6-fluoro-7-(1H-indol-7-yl)-1-(2-isopropyl-4-methylpyridin-3-yl)pyrido[2,3-d]pyrimidin-2(1H)-one] | 9.00 | < 6.30 | – |
| C=CC(=O)N1CCN(c2nc(=O)n(-c3c(C)ccnc3C(C)C)c3nc(-c4c(F)cc(F)c5ccoc45)c(Cl)cc23)[C@@H](C)C1 [Compound 102, 4-((S)-4-acryloyl-2-methylpiperazin-1-yl)-6-chloro-7-(4,6-difluorobenzofuran-7-yl)-1-(2-isopropyl-4-methylpyridin-3-yl)pyrido[2,3-d]pyrimidin-2(1H)-one] | > 8.00 | 7.30 to 8.00 | AUC(0-inf) [1]: 14200 ng·h/mL; Cmax [1]: 3720 ng/mL; Tmax [1]: 1 h; half-life [1]: 2.85 h; AUC(0-t) [1]: 14200 ng·h/mL |
| C=CC(=O)N1CCN(c2nc(=O)n(-c3c(C)ccnc3C(C)C)c3nc(-c4c(F)ccc5c4OCO5)c(F)cc23)[C@@H](C)C1 [Compound 69, 4-((S)-4-acryloyl-2-methylpiperazin-1-yl)-6-fluoro-7-(5-fluorobenzo[d][1,3]dioxol-4-yl)-1-(2-isopropyl-4-methylpyridin-3-yl)pyrido[2,3-d]pyrimidin-2(1H)-one] | 7.30 to 8.00 | 7.00 to 7.30 | AUC(0-inf) [1]: 9930 ng·h/mL; Cmax [1]: 4390 ng/mL; Tmax [1]: 0.83 h; half-life [1]: 5.38 h; AUC(0-t) [1]: 9920 ng·h/mL |
| C=CC(=O)N1CCN(c2nc(=O)n(-c3c(C)ccnc3C(C)C)c3nc(-c4c(F)ccc5ccoc45)c(Cl)cc23)C[C@@H]1CC#N (atropisomer, axis not shown; (M)) [Compound 101-1, 2-((2S)-1-acryloyl-4-(6-chloro-7-(6-fluorobenzofuran-7-yl)-1(M)-(2-isopropyl-4-methylpyridin-3-yl)-2-oxo-1,2-dihydropyrido[2,3-d]pyrimidin-4-yl)piperazin-2-yl)acetonitrile] | 7.30 to 8.00 | – | – |
| C=CC(=O)N1CCN(c2nc(=O)n(-c3c(C)ccnc3C(C)C)c3nc(-c4cccc5ccoc45)c(F)cc23)[C@@H](C)C1 [Compound 107, (S)-4-(4-acryloyl-2-methylpiperazin-1-yl)-7-(benzofuran-7-yl)-6-fluoro-1-(2-isopropyl-4-methylpyridin-3-yl)pyrido[2,3-d]pyrimidin-2(1H)-one] | 6.30 to 7.00 | < 6.30 | – |
| C=CC(=O)N1CCN(c2nc(=O)n(-c3c(C)ccnc3C(C)C)c3nc(-c4c(F)c(O)cc5ccoc45)c(Cl)cc23)[C@@H](C)C1 [Compound 110, 4-((S)-4-acryloyl-2-methylpiperazin-1-yl)-6-chloro-7-(6-fluoro-5-hydroxybenzofuran-7-yl)-1-(2-isopropyl-4-methylpyridin-3-yl)pyrido[2,3-d]pyrimidin-2(1H)-one] | 7.30 to 8.00 | – | melting point: 92 to 104 °C |
| C=CC(=O)N1CCN(c2nc(=O)n(-c3ccccc3C(C)C)c3nc(-c4c(F)ccc5ccoc45)c(F)cc23)[C@@H](C)C1 [Compound 120, 4-((S)-4-acryloyl-2-methylpiperazin-1-yl)-6-fluoro-7-(6-fluorobenzofuran-7-yl)-1-(2-isopropylphenyl)pyrido[2,3-d]pyrimidin-2(1H)-one] | 7.96 | 6.30 to 7.00 | – |
| C=CC(=O)N1CCN(c2nc(=O)n(-c3c(C(C)C)ncnc3C(C)C)c3nc(-c4c(F)ccc5ccoc45)c(Cl)cc23)[C@@H](C)C1 [Compound 118, 4-((S)-4-acryloyl-2-methylpiperazin-1-yl)-6-chloro-1-(4,6-diisopropylpyrimidin-5-yl)-7-(6-fluorobenzofuran-7-yl)pyrido[2,3-d]pyrimidin-2(1H)-one] | > 8.00 | – | melting point: 254 to 256 °C |
| C=CC(=O)N1CCN(c2nc(=O)n(-c3c(C)cccc3C(C)C)c3nc(-c4c(F)ccc5ccoc45)c(F)cc23)[C@@H](C)C1 [Compound 106, 4-((S)-4-acryloyl-2-methylpiperazin-1-yl)-6-fluoro-7-(6-fluorobenzofuran-7-yl)-1-(2-isopropyl-6-methylphenyl)pyrido[2,3-d]pyrimidin-2(1H)-one] | 6.30 to 7.00 | 6.30 to 7.00 | – |
| C=CC(=O)N1CCN(c2nc(=O)n(-c3c(C)ccnc3C(C)C)c3nc(-c4c(F)ccc5c4OCCO5)c(Cl)cc23)[C@@H](C)C1 [Compound 98, 4-((S)-4-acryloyl-2-methylpiperazin-1-yl)-6-chloro-7-(6-fluoro-2,3-dihydrobenzo[b][1,4]dioxin-5-yl)-1-(2-isopropyl-4-methylpyridin-3-yl)pyrido[2,3-d]pyrimidin-2(1H)-one] | > 8.00 | 7.30 to 8.00 | – |
| C=CC(=O)N1CCN(c2nc(=O)n(-c3c(C)ccnc3C(C)C)c3nc(-c4c(F)ccc5c4OCCO5)c(F)cc23)[C@@H](C)C1 [Compound 72, 4-((S)-4-acryloyl-2-methylpiperazin-1-yl)-6-fluoro-7-(6-fluoro-2,3-dihydrobenzo[b][1,4]dioxin-5-yl)-1-(2-isopropyl-4-methylpyridin-3-yl)pyrido[2,3-d]pyrimidin-2(1H)-one] | 7.30 to 8.00 | 7.30 to 8.00 | – |
| C=CC(=O)N1CCN(c2nc(=O)n(-c3c(C)ccnc3C(C)C)c3nc(-c4c(F)ccc5ccoc45)c(F)cc23)C[C@@H]1CC#N (atropisomer, axis not shown; (M)) [Compound 100-1, 2-((2S)-1-acryloyl-4-(6-fluoro-7-(6-fluorobenzofuran-7-yl)-1(M)-(2-isopropyl-4-methylpyridin-3-yl)-2-oxo-1,2-dihydropyrido[2,3-d]pyrimidin-4-yl)piperazin-2-yl)acetonitrile] | 6.30 to 7.00 | – | – |
| C=CC(=O)N1CCN(c2nc(=O)n(-c3c(C)ccnc3C(C)C)c3nc(-c4c(F)c(OC)cc5ccoc45)c(Cl)cc23)[C@@H](C)C1 [Compound 111, 4-((S)-4-acryloyl-2-methylpiperazin-1-yl)-6-chloro-7-(6-fluoro-5-methoxybenzofuran-7-yl)-1-(2-isopropyl-4-methylpyridin-3-yl)pyrido[2,3-d]pyrimidin-2(1H)-one] | 7.00 to 7.30 | – | melting point: 101 to 113 °C |
| C=CC(=O)N1CCN(c2nc(=O)n(-c3c(C)ccnc3C(C)C)c3nc(-c4c(Cl)ccc5ccoc45)c(F)cc23)[C@@H](C)C1 [Compound 112, 4-((S)-4-acryloyl-2-methylpiperazin-1-yl)-7-(6-chlorobenzofuran-7-yl)-6-fluoro-1-(2-isopropyl-4-methylpyridin-3-yl)pyrido[2,3-d]pyrimidin-2(1H)-one] | 7.30 to 8.00 | 7.00 to 7.30 | – |
| C=CC(=O)N1CCN(c2nc(=O)n(-c3c(C(C)C)ccnc3C(C)C)c3nc(-c4c(F)ccc5ccoc45)c(F)cc23)[C@@H](C)C1 [Compound 121, 4-((S)-4-acryloyl-2-methylpiperazin-1-yl)-1-(2,4-diisopropylpyridin-3-yl)-6-fluoro-7-(6-fluorobenzofuran-7-yl)pyrido[2,3-d]pyrimidin-2(1H)-one] | 7.30 to 8.00 | 7.30 to 8.00 | – |
| C=CC(=O)N1CCN(c2nc(=O)n(-c3c(C)ccnc3C(C)C)c3nc(-c4c(Cl)ccc5ccoc45)c(Cl)cc23)[C@@H](C)C1 [Compound 105, 4-((S)-4-acryloyl-2-methylpiperazin-1-yl)-6-chloro-7-(6-chlorobenzofuran-7-yl)-1-(2-isopropyl-4-methylpyridin-3-yl)pyrido[2,3-d]pyrimidin-2(1H)-one] | > 8.00 | 7.30 to 8.00 | – |
